Results taken from article PMC11706420, “Establishing a physiologically based pharmacokinetic framework for aldehyde oxidase and dual aldehyde oxidase‐CYP substrates” (CPT: Pharmacometrics & Systems Pharmacology, 2024).
Read-outs that look alike come from different tables or passages of the source.

How the values were obtained:
[1] = Plasma protein binding (fup), rapid equilibrium dialysis; type: in vitro ADME, human
Protocol: (differing in 2 donors) were used for activity and microsomal binding assays, respectively.
The human biological samples were sourced ethically, and their research use was in accord with the terms of the informed consents under an IRB/EC approved protocol.
Determination of plasma protein binding (fup):
Human plasma (male, K2EDTA) was obtained from BioIVT (Baltimore, MD, USA). A pool of n=20 donors was prepared in-house (batch: 16062022). The plasma protein binding of compounds in human was determined by equilibrium dialysis using the rapid equilibrium dialysis (RED) device (Thermo […]
Frozen blank human plasma […]
solution to a final concentration of 1 µM (0.5 % DMSO). 300 µ L of the fortified plasma samples were subjected to dialysis against 500 µL PBS buffer at pH 7.4, for 6 h at 37 °C in triplicate. After dialysis, 200 µl aliquots of the buffer and the plasma compartments were transferred into micronic tubes. To minimize the potential for non -specific binding to the micronic tubes the buffer sam ples were collected on to 50µl of 10 % bovine serum albumin (BSA). For the assessment of test compound stability in plasma, 300 µl aliquots of the spiked plasma solutions were transferred into micronic tubes and incubated in an air heated incubator at 37°C without shaking for 4 and 20 hours. The remaining spiked protein solutions were frozen and used to measure the initial start concentration ( C0) to calculate the recovery. Sample analysis was achieved by LC -MS/MS and absolute quantification of the drug lev els in the buffer and plasma compartments was achieved via a matrix matched calibration curve (in the presence of an internal standard tolbutamide). All buffer and plasma sample sets were matrix matched […]
for analysis. The samples were centrifuged (15 minutes, 3400 g) and supernatants were transferred to a fresh plate for analysis. The unbound concentration (Cu), and the total concentration (CED) were determined by measurement of the concentration of the test compound in the buffer and plasma compartments of the dialysis cells, respectively. The fraction unbound was calculated using Eq. S1.
fuplasma = Cu/CED (Eq. S1)
The percentage recovery was calculated as the ratio of the sum of the amount in the buffer (Au) and plasma (AED) compartments to the amount at time zero (A0) (Eq. S2). The percentage stability was calculated as the ratio of the concentration of the test compound at the end of the incubation (C t) time […]
% recovery = (( Au + AED ) / A0 ) × 100 (Eq. S2)

[2] = Blood-to-plasma ratio (B/P); type: in vitro ADME, human
Text: Determination of blood to plasma ratio (B/P):
Whole human blood was collected on the day of the experiment from healthy volunteers. The collection protocol was approved by an independent ethical committee and all donors signed the consent forms. All samples were registered in the Janssen Biobank.
Prewarmed blood aliquots were mixed with the compounds (final concentrations shown in Suppl. Table 5) with a final organic DMSO solvent concentration of ≤0.1% (v/v). After gentle mixing to avoid haemolysis, blood aliquots were immediately collected for protein precipitation (1:1:8 ratios of blood sample:DMSO:ACN) and centrifugation (10 minutes, 3800 g) and the supernatant was used as a 0-minute reference blood sample. At the same time, blood aliquots were taken and centrifuged (10 minutes, 1200 g) to obtain the plasma portion. Plasma aliquots were then immediately collected for protein precipitation (1:1:8 ratios of plasma sample:DMSO:ACN) and centrifugation (10 minutes, 3800 g) and the supernatant was used as a 0-minute reference plasma sample. The remainder of the blood fraction was incubated (30 min at 37 °C). Following incubation, 30 -minute blood and plasma samples were taken and prepared as described for the reference 0-minute samples.
Mean compound concentration values (n=3 replicates) were calculated for both the blood and plasma samples. A blood-to-plasma concentration ratio was then determined using Eq. S4. […]

[3] = In vitro permeability (Papp), transwell transport; details: dog, MDCK
CYP3A4 = details: cited from earlier work
[4] = cited from earlier work
[5] = cited from earlier work; for logP: octanol-water, 12 (per cell)
[6] = cited from earlier work; remark: listed apart in the source
[7] = cited from earlier work; for fmAO: ref suppl. 8-13; for fmCYP3A4: ref suppl. 8-12
[8] = Microsomal binding (fumic); details: for fumic (PBPK input): at incubation protein concentration (0.25 or 0.5 mg/mL)
Protocol: Microsomal binding (fumic):
(§1) The fraction unbound in human liver microsomes (fumic) of compounds was determined by equilibrium
(§2) dialysis using the high-throughput dialysis method 2 using membranes from HTDialysis, LLC (Gales
(§3) Ferry, CT) having 12 to 14 kDa molecular mass cutoff. Deactivated HLM (by leaving the HLM
(§4) incubation media on the bench overnight at ambient temperature) at 0.25 mg/mL with 2 µM of
(§5) compounds (a final concentration of DMSO as 1%) was added to the donor compartment in 50 mM
(§6) phosphate buffer containing 1 M MgCl2. (150 µL, n=4 per compound). 150 µL of Dulbecco’s PBS
(§7) buffer (pH 7.4) was added to the receiver chamber for each replicate. After reaching equilibrium for 6
(§8) h on a plate shaker (200 rpm) at 37°C in a humidified CO2 incubator (5% CO2), aliquots from both the
(§9) receiver (45 µL) and donor (15 µL) sides of the membrane were matrix matched and analyzed by LC-
(§10) MS/MS. Matrix stability (n=3) and % of recovery (n=4) were assessed.
(§11) Data analysis for binding in microsomal and cytosolic incubations:
(§12) Fraction unbound in microsomal (fumic) and cytosolic (fucyt) incubations were calculated via Eq. S10-11
(§13) based on the ratio of the peak areas of analyte and internal standard.
(§14) 𝑃𝑒𝑎𝑘 𝐴𝑟𝑒𝑎 𝑅𝑎𝑡𝑖𝑜 = (𝑃𝑒𝑎𝑘 𝐴𝑟𝑒𝑎 𝑜𝑓 𝐴𝑛𝑎𝑙𝑦𝑡𝑒)/(𝑃𝑒𝑎𝑘 𝐴𝑟𝑒𝑎 𝑜𝑓 𝐼𝑛𝑡𝑒𝑟𝑛𝑎𝑙 𝑆 tan 𝑑 𝑎𝑟𝑑) (Eq. S10)
(§15) 𝑓𝑢𝑚𝑖𝑐 𝑜𝑟 𝑓𝑢𝑐𝑦𝑡 = (𝑃𝑒𝑎𝑘 𝐴𝑟𝑒𝑎 𝑅𝑎𝑡𝑖𝑜 𝑖𝑛 𝑟𝑒𝑐𝑒𝑖𝑣𝑒𝑟 𝑐𝑜𝑚𝑝𝑎𝑟𝑡𝑚𝑒𝑛𝑡)/
(§16) concentration (0.5 mg/mL) using Hallifax and Houston algorithm (Hallifax and Houston, 2006). Matrix
(§17) stability and recovery were assessed using Eq. S12 and Eq. S13.
(§18) %𝑠𝑡𝑎𝑏𝑖𝑙𝑖𝑡𝑦 = (𝐴𝑣𝑒𝑟𝑎𝑔𝑒 𝑝𝑒𝑎𝑘 𝑎𝑟𝑒𝑎 𝑖𝑛 𝑚𝑎𝑡𝑟𝑖𝑥 𝑎𝑡 𝑡ℎ𝑒 𝑒𝑛𝑑 𝑜𝑓 𝑖𝑛𝑐𝑢𝑏𝑎𝑡𝑖𝑜𝑛)/
(§19) (𝐴𝑣𝑒𝑟𝑎𝑔𝑒 𝑝𝑒𝑎𝑘 𝑎𝑟𝑒𝑎 𝑎𝑡 𝑇 = 0) × 100 (Eq. S12)
%𝑟𝑒𝑐𝑜𝑣𝑒𝑟𝑦 = (𝐴 + 𝐵)/𝐶 × 100 (Eq. S13)
(§20) where A is the average peak area ratio of all matrix samples, B is the average peak area ratio
of all buffer samples multiplied with the buffer dilution factor and C is the average peak area ratio of

[9] = Cytosolic binding (fucyt), dog liver cytosol; details: 1 mg/mL, n=3, mean (CV%)
Protocol: In vitro data were generated to inform the PBPK models of the selected drugs (Supplement 1 in Appendix S1; Table S1). Subcellular fractions of human and dog liver were sourced from XenoTech (Kansas City, KS, USA). In vitro CLint,u was measured with substrate depletion and binding assays for all compounds (1 μM) in human liver microsomes (HLM; 0.25–0.5 mg/mL) and HLC (1 mg/mL). HLC pool was prepared from livers perfused with Custodiol HTK (histidine tryptophan ketoglutarate) solution, marketed as having preserved “high AO/XO activity.”[15] Dog liver cytosols (DLC; 1 mg/mL) were used to investigate cytosolic binding in the absence of AO. Routine in vitro assays were used to quantify unbound fraction in plasma (fup), blood‐to‐plasma ratio (B/P), and apparent permeability (Papp) through transwell transport assays utilizing canine Mdr1 knockout and empty vector‐transfected MDCKI cells.
𝐶𝐿 = 𝑘 × 𝑣𝑜𝑙𝑢𝑚𝑒 𝑜𝑓 𝑖𝑛𝑐𝑢𝑏𝑎𝑡𝑖𝑜𝑛 (Eq S9)
Cytosolic binding (fucyt):
The fraction unbound in human liver cytosols (fucyt) of compounds was determined by equilibrium
dialysis using the RED device (Thermo Fisher, Waltham MA, USA) with a molecular weight cut-off of
8 kDa. Dog or human liver cytosols at 1 mg/mL with 1 µM of compounds (300 µL, n=3 per compound)
were added to the donor compartment in 100 mM potassium phosphate buffer with final DMSO
liver cytosols to inactivate AO, whereas dog was used as a natural AO knock-out model. 500 µL of 100
mM potassium phosphate buffer (pH 7.35) was added to the receiver chamber for each replicate.
RED device was then sealed with an adhesive foil and incubated on an orbital shaker at 450 rpm (VWR
Symphony) at 37°C with 5 % CO2. After reaching equilibrium for 4 hours, aliquots from both the
receiver (30µL) and donor (30µL) sides of the membrane were matrix matched, and then quenched with
180 µL of cold ACN with 100 nM propranolol (internal standard). The samples were placed in a
Beckman Coulter Allegra x 12R Centrifuge (Brea, CA) for 15 minutes at 3700 rpm. After centrifugation,
the supernatant of each sample was diluted 1:2 and analyzed by LC -MS/ MS. Matrix stability and
recovery were assessed in triplicates and followed identical sample preparation.
Microsomal binding (fumic):
as §1, §2, §3, §4, §5, §6, §7, §8, §9, §10, §11, §12, §13, §14, §15, §16, §17, §18, §19
%𝑟𝑒𝑐𝑜𝑣𝑒𝑟𝑦 = (𝐴 + 𝐵)/𝐶 × 100 (Eq. S13)
as §20

[10] = Microsomal clearance incubations (substrate depletion); details: both, human
Protocol: Subcellular fractions of human and dog liver were sourced from XenoTech (Kansas City, KS, USA). In vitro CLint,u was measured with substrate depletion and binding assays for all compounds (1 μM) in human liver microsomes (HLM; 0.25–0.5 mg/mL) and HLC (1 mg/mL).
Microsomal clearance incubations (CLint):
Human liver microsomes were stored at −80°C and rapidly thawed just before use at 37°C.
All compounds were mixed with HLM and 50 mM
phosphate buffer. 450 µL of the mixture was added to 1.2mL cluster tubes in a 96-well block in
duplicate and warmed in a water bath (Thermo Scientific Precision™,Waltham MA, USA ) at 37°C for
5 min. Reactions were initiated by the addition of 50 µL from 10 mM of NADPH stock in 50 mM
phosphate buffer (final NADPH concentration, 1 mM). The final incubation contained 1 µM test
compound in 500 µL total volume with 0.02% DMSO. At each time point (5, 10, 20, 30, and 60 min),
60 µL of incubation mixture was added to 120 uL of quench solutions (MeOH:ACN, 1:1, v:v)
containing internal standard (0.5 µM carbutamide). The mixture was centrifuged at 3000 rpm for 20
min (Eppendorf 5810R, Hamburg, Germany). Supernatant was injected to HPLC-MS/MS with for data
Data analysis for substrate depletion assays:
Data from the microsomal and cytosolic incubations were analyzed using GraFit 7 (Erithacus Software,
Horley, UK) to determine the elimination rate constant (k), which was used in CLint calculation (Eq.
S9). A nonlinear single exponential fit was used for all compounds.
𝐶𝐿 = 𝑘 × 𝑣𝑜𝑙𝑢𝑚𝑒 𝑜𝑓 𝑖𝑛𝑐𝑢𝑏𝑎𝑡𝑖𝑜𝑛 (Eq S9)

[11] = Cytosolic binding (fucyt), human liver cytosol with AO inhibitor; details: 1 mg/mL; n=3, mean (CV%)
[12] = design: method as in earlier work; details: menadione 100 µM; ref 45 (suppl.); cited from earlier work
[13] = DDI study with rifampicin (capmatinib 400, idelalisib 150, lenvatinib 24 mg) or carbamazepine (ziprasidone 20 mg), observed, ref suppl. 15,18,21,25
[14] = with itraconazole (capmatinib 200 mg) or ketoconazole (idelalisib 400, lenvatinib 5, ziprasidone 40 mg), observed, ref suppl. 15,10,17,20,24
[15] = with rifampicin (capmatinib 400, idelalisib 150, lenvatinib 24 mg) or carbamazepine (ziprasidone 20 mg), observed, ref suppl. 15,18,21,25
[16] = iv: zaleplon 5 (F), ziprasidone 5, zoniporide 80 mg, observed, ref suppl. 22,23,13
[17] = observed, ref Table S2/S3 studies
[18] = oral: capmatinib 200, idelalisib 150, lenvatinib 10, zaleplon 5 (F), ziprasidone 20 mg, observed mean or geomean (CV%), ref suppl. 8,14,16,19,22,23
[19] = oral: capmatinib 200, idelalisib 150, lenvatinib 10, zaleplon 5 (F), ziprasidone 20 mg, observed, ref suppl. 8,14,16,19,22,23
[20] = observed (mass balance), min-max where uncertain
[21] = corrected with Hallifax&Houston algorithm
[22] = iv: zaleplon 5 mg (M), observed, ref suppl. 22
[23] = oral: capmatinib 600, zaleplon 5 (M) mg, observed, ref suppl. 8,22

O=C1Cc2cc(CCN3CCN(c4nsc5ccccc45)CC3)c(Cl)cc2N1 [Ziprasidone]
% Stability in plasma ([1]; male, human, plasma, 20 h, 1 µM): 96.2%
B/P ([2]; 50 ng/mL): 0.44
B/P ([2]; 1000 ng/mL): 0.47
B/P (assumed PBPK input) ([2]; assumed from measured 0.455): 0.55
Papp A→B at 120 min, 5 µM [3]: 3.15 ×10⁻⁶ cm/s
Papp B→A at 120 min, 5 µM [3]: 0.843 ×10⁻⁶ cm/s
efflux ratio at 120 min, 5 µM [3]: 0.268
Cmax, control (CYP3A4; DDI study with itraconazole (capmatinib 200 mg) or ketoconazole (idelalisib 400, lenvatinib 5, ziprasidone 40 mg), observed geomean (CV%), ref suppl. 15,10,17,20,24): 89 (30) ng/mL
AUCinf, control (CYP3A4; DDI study with itraconazole (capmatinib 200 mg) or ketoconazole (idelalisib 400, lenvatinib 5, ziprasidone 40 mg), observed, ref suppl. 15,10,17,20,24): 899 (20) ng.h/mL
AUCinf, control (AUC0-12 for ziprasidone) (CYP3A4; [13]): 495 (26) ng.h/mL
Cmax, control (CYP3A4; [13]): 79 (24) ng/mL
AUCinf, interaction (CYP3A4; [14]): 1199 (18) ng.h/mL
Cmax, interaction (CYP3A4; [14]): 119 (25) ng/mL
AUCinf, interaction (AUC0-12 for ziprasidone) (CYP3A4; [15]): 285 (28) ng.h/mL
Cmax, interaction (CYP3A4; [15]): 48 (27) ng/mL
HH CLint (no reaction phenotyping) ([4]; without inhibitor): 21.8[5], ^f μL/min/10^6 hepatocytes
pKa1 ([5]; 47 (per cell)): 8.24[12]
pKa2 ([5]; 47 (per cell)): 6.31[12]
logP [5]: 4.53[12]
CLiv/oral [CV%] ([6]; i.v., ref Table S2/S3 studies): 23.04 [14] (i.v.) L/h
AUCinf [6, 16]: 217 (20) ng.h/mL
Cmax [6, 16]: 83 (21) ng/mL
CLRenal [6, 17]: Negligible
Cmax [6, 18]: 64 (28) ng/mL
AUCinf [6, 19]: 514 (27) ng.h/mL
fmAO ([7]; measured in excreta): 0.67
fmAO ([7]; observed (mass balance), min-max where uncertain, Table S10): 67
fmCYP3A4 [7, 20]: 33
fmCYP3A4 [7]: 0.33
fumic (PBPK input) [8]: 0.210
Predicted fumic for 0.5 mg/mL [8, 21]: 0.118
Predicted fumic for 1 mg/mL [8, 21]: 0.063
fucyt, Dog Liver Cytosol with 50 uM Hydralazine [9]: 0.288 (3.81)
microsomal CLint at 1 µM ([10]; liver microsomes): 71.9 µL/min/mg
fucyt, Human Liver Cytosol with 5 uM Raloxifene [11]: 0.337 (4.82)
fucyt, Human Liver Cytosol with 50 uM Hydralazine [11]: 0.356 (2.53)

CC1=CC(=O)c2ccccc2C1=O [menadione]
inhibition of ziprasidone reduction [12]: 90%

CCN(C(C)=O)c1cccc(-c2ccnc3c(C#N)cnn23)c1 [Zaleplon]
% Stability in plasma ([1]; 37°C, n=1, at 20h): 104%
Papp A→B at 120 min, 5 µM [3]: 38.9 ×10⁻⁶ cm/s
Papp B→A at 120 min, 5 µM [3]: 32.5 ×10⁻⁶ cm/s
HH CLint, non-AO ([4]; with 25 μM hydralazine): 0.8[21] μL/min/10^6 hepatocytes
logP [5]: 1.3[12]
AUCinf [6, 22]: 71.7 (12) ng.h/mL
Cmax [6, 22]: 61.4 (26.4) ng/mL
AUCinf [6, 16]: 100 (24) ng.h/mL
Cmax [6, 16]: 62.7 (23.8) ng/mL
CLRenal [6, 17]: Negligible
Cmax [6, 18]: 14.4 (38.9) ng/mL
AUCinf [6, 19]: 31.4 (57.3) ng.h/mL
AUCinf [6, 23]: 22.5 (45.8) ng.h/mL
Cmax [6, 23]: 14.5 (45.5) ng/mL
fmCYP3A4 [7, 20]: 26-43
fmCYP3A4 (maximum) ([7]; ref suppl. 9-11): 0.43
fmCYP3A4 (minimum) ([7]; ref suppl. 9-11): 0.26
fumic (PBPK input) [8]: 0.964
Predicted fumic for 1 mg/mL [8, 21]: 0.932
fucyt, Dog Liver Cytosol ([9]; no AO inhibitor): 1
fucyt, Dog Liver Cytosol with 50 uM Hydralazine [9]: 0.84 (3.63)
microsomal CLint at 1 µM ([10]; microsomes): 5.95 µL/min/mg
fucyt, Human Liver Cytosol with 5 uM Raloxifene [11]: 0.846 (1.87)
fucyt, Human Liver Cytosol with 50 uM Hydralazine [11]: 1 (1.10)
